Reference: patent publication US9446015B2, “Quinone based nitric oxide donating compounds for ophthalmic use” (NICOX SCIENCE IRELAND, priority 2012, dated 2016)

How the values were obtained:
[1] = tested on: rat L-NAME-induced hypertension; assay: In vivo tolerance evaluation, L-NAME-induced hypertension after 5-day oral treatment; conditions: 5-ISMN 30 mg/kg, compound (6) 100 mg/kg
Experimental: Fasted male SD rats (250-300 g, n=3-5 per group), obtained from Harlan Italy (Correzzana, Milan, Italy) were orally treated with tested compounds or vehicle (DMSO:Methocel 1% 2/98 v/v) in a total volume of 4 ml/kg by gavage. At each time point (1, 3, 6 and 24 h) animals were deeply anesthetized with Zoletil® 100 (3 mg/kg), given intramuscularly. Thereafter, a pressure catheter (Samba Sensors, Harvard Apparatus, UK) was introduced into the common carotid artery for central blood pressure measurement. Pressure transducer was connected to a personal computer, in order to allow real time monitor of the pressure tracing. After 10 minutes of basal recording, L-NAME (50 mg/kg) was administered intraperitoneally and the effect on SBP monitored. When the SBP stabilized (5 minutes without variations) the recording was stopped. To further confirm that functional activity was NO-dependent, at each time point blood ^15N-nitrite levels were measured following the procedure described in Example 12.
To investigate whether the compound (6) induced nitrate tolerance, as observed for most of the drugs belonging to the nitrate class, the L-NAME-induced hypertension rat model described in Example 7 was performed following a repeated oral treatment. Rats were orally treated for 5 days with vehicle, compound (6) (100 mg/kg) or 5-ISMN (30 mg/kg). […] The experiments were performed at the peak effect (1 hour for 5-ISMN and 3 hours for Compound (6)), results are reported in Table 3.

[2] = tested on: hypertonic saline-induced IOP increase in rabbits; assay: IOP lowering activity in hypertonic saline-induced IOP increase in rabbits; format: in vivo, New Zealand White rabbits
Excerpt: Intraocular pressure (IOP) lowering activity in hypertonic saline-induced IOP increase in rabbits.
This animal model of elevated IOP was used for assessing the intraocular pressure (IOP) lowering activities of some compounds of the invention, timolol, dorzolamide and 5-isosorbide mononitrate.
• compounds (6), (20) and (25) • timolol and dorzolamide that are drugs commonly used for the treatment of glaucoma and ocular hypertension. • Isosorbide mononitrate (5-ISMN) that is a commonly used nitric oxide donor drug.
(§1) Timolol, dorzolamide and 5-ISMN were tested as reference compounds. Adults male New Zealand White rabbits weighting 1.8-2.0 Kg were used in the experiments.
IOP was measured using a Tono-Pen XL prior to hypertonic saline injection (basal) and at 30, 60, 120 and 240 min thereafter. Vehicle (5% cremophor-EL; 0.3% DMSO; 0.2 mg/ml BAK in PBS pH 6.0) and all the tested compounds dissolved in the vehicle were instilled as eye drops immediately after hypertonic saline injection. Eyes were randomly assigned to different treatment groups. Vehicle and the tested compounds were directly instilled into the conjunctiva pocket at the desired doses. One drop of 0.4% oxybuprocaine hydrochloride (Novesine, Sandoz) was instilled in each eye immediately before each set of pressure measurements.
Results are reported in Table 6, the ocular hypotensive activities of the tested compounds are expressed as IOP change at 60 and 120 minutes after topical administration versus vehicle and versus the basal IOP.

[3] = tested on: ocular normotensive New Zealand rabbits; assay: IOP lowering activity in ocular normotensive New Zealand rabbits; format: in vivo, New Zealand White rabbits
Experimental: Intraocular pressure (IOP) lowering activity in ocular normotensive New Zealand rabbits.
• compound (6) • timolol that is a drug commonly used for the treatment of glaucoma and ocular hypertension. • Isosorbide mononitrate (5-ISMN) that is a commonly used nitric oxide donor drug.
as §1
IOP was measured using a pneumatonometer 30 CLASSIC™ before topical application (basal) and a different time point (30, 60, 120, 240 and 300 min) thereafter. Vehicle (5% cremophor-EL; 0.3% DMSO; 0.2 mg/ml BAK in PBS pH 6.0) or tested compounds dissolved in the vehicle were instilled as eye drops into the conjunctiva pocket. Eyes were randomly assigned to different treatment groups. One drop of 0.4% oxybuprocaine hydrochloride (Novesine, Sandoz) was instilled in each eye immediately before each set of pressure measurements.
The test results are reported in Table 7, the ocular hypotensive activity is expressed as IOP changes at 30, 60, 120 and 300 minutes after topical administration versus vehicle and versus IOP at basal.

[4] = 60 min after topical administration
[5] = 120 min after topical administration

In the case of `COC1=C(OC)C(=O)C(CCCCCCCCCCO[N+](=O)[O-])=C(C)C1=O` [Compound (6), 10-(4,5-dimethoxy-2-methyl-3,6-dioxocyclohexa-1,4-dienyl)decyl nitrate], the “efficacy in preventing L-NAME-induced hypertension after 5-day oral treatment” value [1] was “counteracted L-NAME-induced hypertension”, the “ΔΔ (mmHg), IOP change versus vehicle and versus basal IOP” value [2, 4] was −7.4 ± 2.7 mmHg and the “ΔΔ (mmHg), IOP change versus vehicle and versus basal IOP” value [2, 5] was −9.8 ± 2.0 mmHg. The “ΔΔ (mmHg), IOP change versus vehicle and versus IOP at basal” value ([3]; 30 min after topical administration) was −1.8 ± 0.4 mmHg, the “ΔΔ (mmHg), IOP change versus vehicle and versus IOP at basal” value [3, 4] was −1.6 ± 0.3 mmHg and the “ΔΔ (mmHg), IOP change versus vehicle and versus IOP at basal” value [3, 5] was −1.3 ± 0.5 mmHg. The “ΔΔ (mmHg), IOP change versus vehicle and versus IOP at basal” value ([3]; 300 min after topical administration) was −1.5 ± 0.4 mmHg.
